# Measured values from patent US8513268B2, “1H-quinazoline-2,4-diones processes for their production, pharmaceutical compositions, and treatment for epilepsy” (Novartis AG, priority 2005, dated 2013).
# Counter-ions that a name gives are not always drawn.
# Target: AMPA-Receptor
# Assay: [3H] CNQX binding test (AMPA-receptor binding)
# Settings: brain membranes, 5 nM [3H]-CNQX, 4° C., 40 min
# Experimental: CNQX binding test (Honoré et al. Biochem. Pharmacol. 1989, 38: 3207-3212). This test is performed as follows: • Brain membranes: The animals are decapitated, the brain removed and homogenized in 10 volumes of ice-cold 10% sucrose with a glass/Teflon homogenizer at positions 5 for 30 sec. The membranes are centrifuged at 1000×g for 10 min, and the supernatant centrifuged at 20,000×g for 15 min. The resulting pellet is resuspended in 10 volumes of cold water with a tissue homogenizer (Brinkman Polytron) at position 5 for 15 sec and the suspension centrifuged at 8000×g for 10 min. The supernatant including the buffy layer is centrifuged at 40,000×g for 20 min, the pellet resuspended in 5 volumes of water and the suspension frozen (20-30 min in dry ice/MeOH) and thawed (water-bath at 37° C.) twice. The suspension is centrifuged at 40,000×g for 20 min, the pellet resuspended in 50 mM HEPES/KOH, pH 7.5, and centrifuged at 40,000×g for 10 min. […]
# Two hundred μL of the scintillation fluid Microscint 20 (Packard) are added and the radioactivity is counted in a Packard Topcount scintillation counter at an efficiency of 40-45%. […]
row,IC50 [µM],Compound
1,< 1,"CCOC(C)c1cc2c(=O)n(NS(C)(=O)=O)c(=O)[nH]c2cc1C(F)(F)F (stereo not drawn) [Example 4, N-[6-(1-Ethoxy-ethyl)-2,4-dioxo-7-trifluoromethyl-1,4-dihydro-2H-quinazolin-3-yl]-methanesulfonamide]"

# Target: T1, rGluR3 AMPA receptor (Rattus norvegicus, UniProt P19492)
# T1 construct: expressed in transfected cells; host or cells: Xenopus laevis oocytes injected with cRNA
# Assay: Functional test for AMPA-receptor activity, two electrode voltage clamp in Xenopus laevis oocytes
# Assay type: cell-based
# Settings: oocytes expressing rat GluR3-(flop) AMPA receptor; read-out: IC50-value (antagonist)
# Experimental: For the determination of functional agonism or antagonism at the AMPA-receptor, experiments can be performed on Xenopus oocytes as previously described in detail (Urwyler et al., Mol. Pharmacol. 2001, 60, 963-971). Briefly, two electrode voltage clamp recordings are performed from Xenopus laevis oocytes expressing GluR3 AMPA receptors. Plasmids for the rat GluR3-(flop) (Hollmann et al., Science 1991, 252, 851-853) are linearized and transcribed into capped cRNA using an in vitro RNA synthesis kit (Ambion, Texas) with T7 Polymerase. Stock solutions are kept in 70% EtOH. Before use, cRNA is precipitated and resuspended in DEPC-treated water. Oocytes are injected with RNA coding the rat GluR3-(flop) AMPA receptor. For recordings, oocytes are placed in a perfusion chamber with continuous gravity flow of frog Ringer's solution. For recordings from oocytes expressing rGluR3-(flop) receptors frog, Ringer's solution containing Mg^2+ (81 mM NaCl; 2.5 mM KCl; 1 mM CaCl2; 1 mM MgCl2, 2.5 mM NaHCO3, 5 mM HEPES, pH 7.4) is used.
# Test compounds are washed in with gravity.
# T1 sequence (P19492 23-888): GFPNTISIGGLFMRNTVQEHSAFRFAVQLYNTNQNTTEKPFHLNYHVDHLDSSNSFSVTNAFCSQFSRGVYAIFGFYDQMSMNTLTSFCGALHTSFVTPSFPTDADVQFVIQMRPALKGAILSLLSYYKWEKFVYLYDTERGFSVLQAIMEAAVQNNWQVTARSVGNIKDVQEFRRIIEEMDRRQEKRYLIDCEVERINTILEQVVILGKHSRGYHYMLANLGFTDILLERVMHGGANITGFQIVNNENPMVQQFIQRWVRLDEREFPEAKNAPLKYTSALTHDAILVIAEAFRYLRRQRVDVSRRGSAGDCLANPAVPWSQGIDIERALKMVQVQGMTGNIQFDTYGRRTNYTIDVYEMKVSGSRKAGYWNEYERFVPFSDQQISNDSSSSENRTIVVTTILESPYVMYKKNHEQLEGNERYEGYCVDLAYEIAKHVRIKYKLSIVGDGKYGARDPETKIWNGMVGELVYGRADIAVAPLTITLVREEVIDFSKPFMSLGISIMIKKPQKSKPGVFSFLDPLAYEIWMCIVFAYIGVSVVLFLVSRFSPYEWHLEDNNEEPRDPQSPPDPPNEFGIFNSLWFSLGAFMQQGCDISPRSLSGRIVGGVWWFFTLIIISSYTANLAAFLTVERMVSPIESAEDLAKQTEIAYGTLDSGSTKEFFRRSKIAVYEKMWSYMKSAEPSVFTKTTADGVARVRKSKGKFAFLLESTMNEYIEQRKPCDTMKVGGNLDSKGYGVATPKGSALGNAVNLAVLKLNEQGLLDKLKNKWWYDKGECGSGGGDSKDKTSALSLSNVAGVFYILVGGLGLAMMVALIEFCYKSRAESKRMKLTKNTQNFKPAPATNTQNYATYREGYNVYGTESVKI
row,IC50 [µM],Compound
1,< 3,"CCOC(C)c1cc2c(=O)n(NS(C)(=O)=O)c(=O)[nH]c2cc1C(F)(F)F (stereo not drawn) [Example 4, N-[6-(1-Ethoxy-ethyl)-2,4-dioxo-7-trifluoromethyl-1,4-dihydro-2H-quinazolin-3-yl]-methanesulfonamide]"

# System: not given
# Assay: not given
# Settings: not given
row,Compound,melting point [°C]
1,"CS(=O)(=O)Nn1c(=O)[nH]c2cc(C(F)(F)F)c(-c3cccc(CN)c3)cc2c1=O (as salt: hydrochloride) [Example 38, N-[6-(3-Aminomethyl-phenyl)-2,4-dioxo-7-trifluoromethyl-1,4-dihydro-2H-quinazolin-3-yl]methanesulfonamide]",282 to 284
2,"CC(=O)c1cc2c(=O)n(NS(C)(=O)=O)c(=O)[nH]c2cc1C(F)(F)F [Example 1, N-(6-Acetyl-2,4-dioxo-7-trifluoromethyl-1,4-dihydro-2H-quinazolin-3-yl)-methanesulfonamide]",258 to 265
3,"COC(C)c1cc2c(=O)n(NS(C)(=O)=O)c(=O)[nH]c2cc1C(F)(F)F (stereo not drawn) [Example 3, N-[6-(1-Methoxy-ethyl)-2,4-dioxo-7-trifluoromethyl-1,4-dihydro-2H-quinazolin-3-yl]-methanesulfonamide]",233 to 236
4,"CS(=O)(=O)Nn1c(=O)[nH]c2cc(C(F)(F)F)c(C3CCCO3)cc2c1=O (stereo not drawn) [Example 12, N-[2,4-Dioxo-6-(tetrahydro-furan-2-yl)-7-trifluoromethyl-1,4-dihydro-2H-quinazolin-3-yl]-methanesulfonamide]",254 to 257
5,"CCCOC(C)c1cc2c(=O)n(NS(C)(=O)=O)c(=O)[nH]c2cc1C(F)(F)F (stereo not drawn) [Example 14, N-[2,4-Dioxo-6-(1-propoxy-ethyl)-7-trifluoromethyl-1,4-dihydro-2H-quinazolin-3-yl]-methanesulfonamide]",95 to 105
6,"CCCCOC(C)c1cc2c(=O)n(NS(C)(=O)=O)c(=O)[nH]c2cc1C(F)(F)F (stereo not drawn) [Example 15, N-[6-(1-Butoxy-ethyl)-2,4-dioxo-7-trifluoromethyl-1,4-dihydro-2H-quinazolin-3-yl]-methanesulfonamide]",84 to 90
7,"COC(c1cc2c(=O)n(NS(C)(=O)=O)c(=O)[nH]c2cc1C(F)(F)F)C(C)C (stereo not drawn) [Example 23, N-[6-(1-Methoxy-2-methyl-propyl)-2,4-dioxo-7-trifluoromethyl-1,4-dihydro-2H-quinazolin-3-yl]-methanesulfonamide]",227 to 229
8,"CS(=O)(=O)Nn1c(=O)[nH]c2cc(C(F)(F)F)c(C3CCCCO3)cc2c1=O (stereo not drawn) [Example 24, N-[2,4-Dioxo-6-(tetrahydro-pyran-2-yl)-7-trifluoromethyl-1,4-dihydro-2H-quinazolin-3-yl]-methanesulfonamide]",275 to 280
9,"CS(=O)(=O)Nn1c(=O)[nH]c2cc(C(F)(F)F)c(-c3cccc(C#N)c3)cc2c1=O [Example 34, N-[6-(3-Cyano-phenyl)-2,4-dioxo-7-trifluoromethyl-1,4-dihydro-2H-quinazolin-3-yl]-methanesulfonamide]",291 to 292
10,"CS(=O)(=O)Nn1c(=O)[nH]c2cc(C(F)(F)F)c(-c3ccc(C#N)cc3)cc2c1=O [Example 35, N-[6-(4-Cyano-phenyl)-2,4-dioxo-7-trifluoromethyl-1,4-dihydro-2H-quinazolin-3-yl]-methanesulfonamide]",145 to 147
11,"CN(C)Cc1cccc(-c2cc3c(=O)n(NS(C)(=O)=O)c(=O)[nH]c3cc2C(F)(F)F)c1 [Example 39, N-[6-(3-Dimethylaminomethyl-phenyl)-2,4-dioxo-7-trifluoromethyl-1,4-dihydro-2H-quinazolin-3-yl]-methanesulfonamide]",346 to 348

# Other lines, results leading:
row,melting point [°C],Compound
1,263 to 268,"CC(O)c1cc2c(=O)n(NS(C)(=O)=O)c(=O)[nH]c2cc1C(F)(F)F (racemic) [Example 2, N-[6-(1-Hydroxy-ethyl)-2,4-dioxo-7-trifluoromethyl-1,4-dihydro-2H-quinazolin-3-yl]-methanesulfonamide]"
2,105 to 112,"CCOC(C)c1cc2c(=O)n(NS(C)(=O)=O)c(=O)[nH]c2cc1C(F)(F)F (stereo not drawn) [Example 4, N-[6-(1-Ethoxy-ethyl)-2,4-dioxo-7-trifluoromethyl-1,4-dihydro-2H-quinazolin-3-yl]-methanesulfonamide]"
3,110 to 115,"CC(C)OC(C)c1cc2c(=O)n(NS(C)(=O)=O)c(=O)[nH]c2cc1C(F)(F)F (stereo not drawn) [Example 5, N-[6-(1-Isopropoxy-ethyl)-2,4-dioxo-7-trifluoromethyl-1,4-dihydro-2H-quinazolin-3-yl]-methanesulfonamide]"
4,234 to 236,"CCC(=O)c1cc2c(=O)n(NS(C)(=O)=O)c(=O)[nH]c2cc1C(F)(F)F [Example 6, N-(2,4-Dioxo-6-propionyl-7-trifluoromethyl-1,4-dihydro-2H-quinazolin-3-yl)-methanesulfonamide]"
5,219 to 222,"CCC(O)c1cc2c(=O)n(NS(C)(=O)=O)c(=O)[nH]c2cc1C(F)(F)F (stereo not drawn) [Example 7, N-[6-(1-Hydroxy-propyl)-2,4-dioxo-7-trifluoromethyl-1,4-dihydro-2H-quinazolin-3-yl]-methanesulfonamide]"
6,236 to 239,"CCCC(=O)c1cc2c(=O)n(NS(C)(=O)=O)c(=O)[nH]c2cc1C(F)(F)F [Example 10, N-(6-Butyryl-2,4-dioxo-7-trifluoromethyl-1,4-dihydro-2H-quinazolin-3-yl)-methanesulfonamide]"
7,223 to 226,"CCCC(O)c1cc2c(=O)n(NS(C)(=O)=O)c(=O)[nH]c2cc1C(F)(F)F (stereo not drawn) [Example 11, N-[6-(1-Hydroxy-butyl)-2,4-dioxo-7-trifluoromethyl-1,4-dihydro-2H-quinazolin-3-yl]-methanesulfonamide]"
8,188 to 192,"CC(OC1CCCC1)c1cc2c(=O)n(NS(C)(=O)=O)c(=O)[nH]c2cc1C(F)(F)F (stereo not drawn) [Example 17, N-[6-(1-Cyclopentyloxy-ethyl)-2,4-dioxo-7-trifluoromethyl-1,4-dihydro-2H-quinazolin-3-yl]-methanesulfonamide]"
9,262 to 265,"CS(=O)(=O)Nn1c(=O)[nH]c2cc(C(F)(F)F)c(C(=O)C(F)(F)F)cc2c1=O [Example 20, N-[2,4-Dioxo-6-(2,2,2,-trifluoro-acetyl)-7-trifluoromethyl-1,4-dihydro-2H-quinazolin-3-yl]-methanesulfonamide]"
10,228 to 231,"CC(C)C(=O)c1cc2c(=O)n(NS(C)(=O)=O)c(=O)[nH]c2cc1C(F)(F)F [Example 21, N-(6-Isobutyryl-2,4-dioxo-7-trifluoromethyl-1,4-dihydro-2H-quinazolin-3-yl)-methanesulfonamide]"
11,232 to 235,"CC(C)C(O)c1cc2c(=O)n(NS(C)(=O)=O)c(=O)[nH]c2cc1C(F)(F)F (stereo not drawn) [Example 22, N-[6-(1-Hydroxy-2-methyl-propyl)-2,4-dioxo-7-trifluoromethyl-1,4-dihydro-2H-quinazolin-3-yl]methanesulfonamide]"
12,243 to 247,"CS(=O)(=O)Nn1c(=O)[nH]c2cc(C(F)(F)F)c(CCCO)cc2c1=O [Example 25, N-[6-(3-Hydroxy-propyl)-2,4-dioxo-7-trifluoromethyl-1,4-dihydro-2H-quinazolin-3-yl]-methanesulfonamide]"
13,220 to 222,"CC(=O)c1cccc(-c2cc3c(=O)n(NS(C)(=O)=O)c(=O)[nH]c3cc2C(F)(F)F)c1 [Example 36, N-[6-(3-Acetyl-phenyl)-2,4-dioxo-7-trifluoromethyl-1,4-dihydro-2H-quinazolin-3-yl]-methanesulfonamide]"
14,165 to 169,"CC(O)c1cccc(-c2cc3c(=O)n(NS(C)(=O)=O)c(=O)[nH]c3cc2C(F)(F)F)c1 (stereo not drawn) [Example 37, N-{6-[3-(1-Hydroxy-ethyl)-phenyl]-2,4-dioxo-7-trifluoromethyl-1,4-dihydro-2H-quinazolin-3-yl}-methanesulfonamide]"
